Here are results for 8 compounds from patent US9927424B2, “Assays for identifying compounds that modulate bitter taste” (Chromocell Corporation, priority 2013, dated 2018).

The target of one test is T1, TAS2R14 (Homo sapiens, UniProt Q9NYV8).
T1 construct: expressed in transfected cells
T1 sequence (Q9NYV8 1-317): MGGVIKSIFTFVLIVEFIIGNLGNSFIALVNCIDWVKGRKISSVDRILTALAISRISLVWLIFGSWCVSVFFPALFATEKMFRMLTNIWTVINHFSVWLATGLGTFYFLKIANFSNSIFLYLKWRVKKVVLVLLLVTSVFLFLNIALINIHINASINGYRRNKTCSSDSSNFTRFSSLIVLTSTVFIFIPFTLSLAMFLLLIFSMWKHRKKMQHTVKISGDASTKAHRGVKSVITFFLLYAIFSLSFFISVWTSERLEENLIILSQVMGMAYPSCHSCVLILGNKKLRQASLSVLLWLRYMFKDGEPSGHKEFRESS
As to the kind of experiment: Calcium fluorescence functional assay, TAS2R14 cell line with mouse Gα15. The note with it: 20 mM tastant; change in intracellular calcium. It counts as cell-based. The procedure: (§1) A panel of cell lines expressing eight specific bitter taste receptors, a subset of the panel of twenty-five bitter receptors described in International Patent Application Publication WO 2010/088633 (see, e.g., Example 26), was used for the purpose of these analyses. Accordingly, each cell line of the panel expressed a human bitter taste receptor and mouse Gα15 signaling protein.
(§2) Each of the Examples below utilized the following functional assay: • Day 1: Stable cell lines were seeded onto black wall/clear bottom 96-well, plates (e.g., Corning, 3904). Approximately 40K cells were added per well and incubated at 37° C., 5% CO2 overnight in cell growth media (DMEM (Sigma, D5796) supplemented with 10% Fetal Bovine Serum (Sigma, 5178), 2 mM Glutamine (Sigma, G7513)). • Day 2: Growth media was discarded and cells were incubated at 37° C., 5% CO2 for 60 minutes in 100 ul of load solution containing 1× Ca-3 dye (Molecular Devices, R8090), 1% DMSO in buffer containing 130 mM NaCl, 2 mM CaCl2, 5 mM KCl, 1.2 mM MgCl2, 10 mM HEPES and 10 mM Glucose (pH 7.0). Probenecid was not included in the load solution. • Functional assay: After dye loading, cell plates were placed in a fluorescent plate reader (e.g., FDSS6000 (Hamamatsu, Japan)) and receptor stimulation was measured by adding 50 ul of 3× concentrated ligand/agonist stock. Fluorescence was monitored continuously for 10 s before agonist addition and for 100-250 s after stimulation with agonist.
(§3) Receptor Activation is defined as follows: • % Activation=[((Maximum signal fluorescence−Minimum signal fluorescence)−(Maximum control fluorescence−Minimum control fluorescence))/(Maximum buffer fluorescence−Minimum buffer fluorescence)]*100 • Functional Response=[(Maximum signal fluorescence−Minimum signal fluorescence)−(Maximum control fluorescence−Minimum control fluorescence)] • Signal fluorescence: refers to the change in fluorescence seen with addition of ligand • Control fluorescence: refers to the change in fluorescence seen with addition of buffer (negative control) • Calcium signals from ligand and control were normalized to the basal fluorescence of the cells prior to the stimulation.
(§4) A concentration analysis was performed and EC50 values were calculated by nonlinear regression using the formula: Y=Bottom+(Top−Bottom)/(1+10^((Log EC50−X)*Hill Slope)), X=log of dose or concentration, Y=Response (increasing as X increases), Top=maximum signal, Bottom=minimum signal. EC50 (half maximal effective concentration) refers to the molar concentration of the agonist which produces 50% of the maximum possible effective response from that agonist.
For orientation: Calcium flux is commonly read through the fluorescence of an indicator in the cells.
Consider `CC(=O)[O-].[K+]` [potassium acetate], for which the “TAS2R14 bitter receptor activity (functional response)” value (“TAS2R14 bitter receptor activity” for short) is given as “induced”.
For the compound `O=C([O-])c1ccccc1.[K+]` [potassium benzoate], the “TAS2R14 bitter receptor activity” value is “induced”.
With `O=C([O-])[C@H](O)[C@@H](O)[C@H](O)[C@H](O)CO.[K+]` [potassium gluconate], the “TAS2R14 bitter receptor activity” value is on record as “induced”.
With `O=[N+]([O-])[O-].[K+]` [potassium nitrate], the “TAS2R14 bitter receptor activity” value is given as “induced”.
Turning to `O=P([O-])([O-])O.[K+].[K+]` [potassium phosphate (dibasic)], the “TAS2R14 bitter receptor activity” value was “induced”.
Same read-out and setting: as for `C/C=C/C=C/C(=O)[O-].[K+]` [potassium sorbate], the entry is “induced”; as for `O=S(=O)([O-])[O-].[K+].[K+]` [potassium sulfate], “induced”.

Still in this test, the particulars now being: approximately; increasing concentrations of tastant.
Take `CC(=O)[O-].[K+]` [potassium acetate]: the EC50 (commonly the midpoint of the concentration-response curve) is 5 to 10 mM.
Consider `O=C([O-])c1ccccc1.[K+]` [potassium benzoate], for which the EC50 was 5 to 10 mM.

The target in the next test is T2, TAS2R39 (Homo sapiens, UniProt P59534).
T2 construct: expressed in transfected cells
T2 sequence (P59534 1-338): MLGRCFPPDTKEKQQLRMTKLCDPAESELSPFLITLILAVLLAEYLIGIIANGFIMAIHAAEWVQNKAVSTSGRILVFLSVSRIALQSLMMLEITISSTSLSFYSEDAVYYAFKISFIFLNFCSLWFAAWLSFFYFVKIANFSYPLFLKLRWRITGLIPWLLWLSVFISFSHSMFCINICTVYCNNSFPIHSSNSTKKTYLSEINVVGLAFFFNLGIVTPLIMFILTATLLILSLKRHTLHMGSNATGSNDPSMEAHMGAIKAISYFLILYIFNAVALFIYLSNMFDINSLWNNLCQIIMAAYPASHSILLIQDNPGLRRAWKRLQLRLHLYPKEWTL
Kind of test: Calcium fluorescence functional assay, TAS2R39 cell line with mouse Gα15. The test is classed as cell-based. The note with it: 20 mM tastant; change in intracellular calcium. The procedure:
as §1, §2, §3, §4
On to `[Cl-].[K+]` [KCl], for which the “TAS2R39 bitter receptor activity (functional response)” value (shortened to “TAS2R39 bitter receptor activity”) is “strongly and specifically responded”.
The same measure, in the same setting: as for `CC(=O)[O-].[K+]` [potassium acetate], the entry is “did not induce”; as for `O=C([O-])c1ccccc1.[K+]` [potassium benzoate], “induced”.
For `O=C([O-])[C@H](O)[C@@H](O)[C@H](O)[C@H](O)CO.[K+]` [potassium gluconate], the “TAS2R39 bitter receptor activity” value is “induced”.
In the case of `O=[N+]([O-])[O-].[K+]` [potassium nitrate], the “TAS2R39 bitter receptor activity” value is reported as “induced”.
The same measure, in the same setting: as for `O=P([O-])([O-])O.[K+].[K+]` [potassium phosphate (dibasic)], the entry is “induced”; as for `C/C=C/C=C/C(=O)[O-].[K+]` [potassium sorbate], “induced”; as for `O=S(=O)([O-])[O-].[K+].[K+]` [potassium sulfate], “induced”.

The same test, now with this note: approximately; increasing concentrations of tastant.
`[Cl-].[K+]` [KCl]: the EC50 lay within 5 to 15 mM.
`O=C([O-])c1ccccc1.[K+]` [potassium benzoate]: the EC50 was in the range of 5 to 10 mM.

A further test addresses T3, TAS2R44 (Homo sapiens, UniProt P59538).
T3 construct: expressed in transfected cells
T3 sequence (P59538 1-309): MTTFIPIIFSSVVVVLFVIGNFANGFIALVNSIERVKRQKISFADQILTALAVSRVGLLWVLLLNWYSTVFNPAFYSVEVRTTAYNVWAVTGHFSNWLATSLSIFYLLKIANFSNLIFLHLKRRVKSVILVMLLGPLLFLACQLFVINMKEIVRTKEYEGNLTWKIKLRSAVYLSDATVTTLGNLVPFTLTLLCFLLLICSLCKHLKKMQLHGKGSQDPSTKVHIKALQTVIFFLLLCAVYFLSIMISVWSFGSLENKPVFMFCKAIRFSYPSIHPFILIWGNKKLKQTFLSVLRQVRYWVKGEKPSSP
Kind of test: Calcium fluorescence functional assay, TAS2R44 cell line with mouse Gα15. It counts as cell-based. The settings on record: 20 mM tastant; change in intracellular calcium. The protocol: as §1, §2, §3, §4
Consider `CC(=O)[O-].[K+]` [potassium acetate], for which the “TAS2R44 bitter receptor activity (functional response)” value (from here on “TAS2R44 bitter receptor activity”) is recorded as “induced”.
On the same count and under the same terms, as for `O=C([O-])c1ccccc1.[K+]` [potassium benzoate], the entry is “induced”.
For `O=C([O-])[C@H](O)[C@@H](O)[C@H](O)[C@H](O)CO.[K+]` [potassium gluconate], the “TAS2R44 bitter receptor activity” value was “induced”.
With `O=[N+]([O-])[O-].[K+]` [potassium nitrate], the “TAS2R44 bitter receptor activity” value was “induced”.
As to `O=P([O-])([O-])O.[K+].[K+]` [potassium phosphate (dibasic)], the “TAS2R44 bitter receptor activity” value was “induced”.
In the case of `C/C=C/C=C/C(=O)[O-].[K+]` [potassium sorbate], the “TAS2R44 bitter receptor activity” value is listed as “induced”.
Turning to `O=S(=O)([O-])[O-].[K+].[K+]` [potassium sulfate], the “TAS2R44 bitter receptor activity” value was “induced”.

The same test, now with this note: approximately; increasing concentrations of tastant.
On to `CC(=O)[O-].[K+]` [potassium acetate], for which the EC50 was in the range of 5 to 10 mM.
As for `O=C([O-])c1ccccc1.[K+]` [potassium benzoate], the EC50 is 5 to 10 mM.

For the next test, the target named is T4, TAS2R60 (Homo sapiens, UniProt P59551).
T4 construct: expressed in transfected cells
T4 sequence (P59551 1-318): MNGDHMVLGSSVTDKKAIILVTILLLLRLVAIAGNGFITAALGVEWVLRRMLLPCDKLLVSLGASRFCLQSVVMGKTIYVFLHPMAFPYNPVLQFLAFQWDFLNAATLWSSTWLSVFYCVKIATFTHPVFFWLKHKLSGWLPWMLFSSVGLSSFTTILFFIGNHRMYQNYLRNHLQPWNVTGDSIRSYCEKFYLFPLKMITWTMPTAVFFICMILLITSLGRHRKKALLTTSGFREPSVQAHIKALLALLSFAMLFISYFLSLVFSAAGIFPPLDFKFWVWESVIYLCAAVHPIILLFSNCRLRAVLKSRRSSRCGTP
As to the kind of experiment: Calcium fluorescence functional assay, TAS2R60 cell line with mouse Gα15. The test is classed as cell-based. The note with it: 20 mM tastant; change in intracellular calcium; data for potassium nitrate and potassium phosphate (dibasic) preliminary. The protocol: Accordingly, each cell line of the panel expressed a human bitter taste receptor and mouse Gα15 signaling protein.
Probenecid was not included in the load solution. • Functional assay: After dye loading, cell plates were placed in a fluorescent plate reader (e.g., FDSS6000 (Hamamatsu, Japan)) and receptor stimulation was measured by adding 50 ul of 3× concentrated ligand/agonist stock. Fluorescence was monitored continuously for 10 s before agonist addition and for 100-250 s after stimulation with agonist.
as §3
A concentration analysis was performed and EC50 values were calculated by nonlinear regression using the formula: Y=Bottom+(Top−Bottom)/(1+10^((Log EC50−X)*Hill Slope)), X=log of dose or concentration, Y=Response (increasing as X increases), Top=maximum signal, Bottom=minimum signal.
For `CC(=O)[O-].[K+]` [potassium acetate], the “TAS2R60 bitter receptor activity (functional response)” value (“TAS2R60 bitter receptor activity” below) is on record as “induced”.
For `O=C([O-])c1ccccc1.[K+]` [potassium benzoate], the “TAS2R60 bitter receptor activity” value is “induced”.
For `O=C([O-])[C@H](O)[C@@H](O)[C@H](O)[C@H](O)CO.[K+]` [potassium gluconate], the “TAS2R60 bitter receptor activity” value is on record as “did not induce”.
Regarding `O=[N+]([O-])[O-].[K+]` [potassium nitrate], the “TAS2R60 bitter receptor activity” value is on record as “induced”.
Same read-out and setting: as for `O=P([O-])([O-])O.[K+].[K+]` [potassium phosphate (dibasic)], the entry is “induced”; as for `C/C=C/C=C/C(=O)[O-].[K+]` [potassium sorbate], “induced”.
The same measure, in the same setting: under `O=S(=O)([O-])[O-].[K+].[K+]` [potassium sulfate] stands “induced”.

Staying with this test, now noted: approximately; increasing concentrations of tastant.
As to `CC(=O)[O-].[K+]` [potassium acetate], the EC50 is 5 to 10 mM.
With `O=C([O-])c1ccccc1.[K+]` [potassium benzoate], the EC50 lay in the range of 5 to 10 mM.
